# Source: PMC8504577, “Evaluation of a Clinically Relevant Drug–Drug Interaction Between Rosuvastatin and Clopidogrel and the Risk of Hepatotoxicity” (Frontiers in Pharmacology, 2021)
# Like-named read-outs stand apart in the source and are kept apart here.
# Columns and labels:
# OATP1B3 = test system: OATP1B3; design: method as in Elsby et al., 2016; settings: ref Elsby et al., 2016; cited from earlier work
# [1] = human, ref Pinheiro et al., 2012, Remsberg et al., 2013, cited from earlier work
# OATP1B1 [2] = molecular target: T1, OATP1B1 (Homo sapiens, UniProt Q9Y6L6); test: cell-based
# T1 sequence (Q9Y6L6 1-691): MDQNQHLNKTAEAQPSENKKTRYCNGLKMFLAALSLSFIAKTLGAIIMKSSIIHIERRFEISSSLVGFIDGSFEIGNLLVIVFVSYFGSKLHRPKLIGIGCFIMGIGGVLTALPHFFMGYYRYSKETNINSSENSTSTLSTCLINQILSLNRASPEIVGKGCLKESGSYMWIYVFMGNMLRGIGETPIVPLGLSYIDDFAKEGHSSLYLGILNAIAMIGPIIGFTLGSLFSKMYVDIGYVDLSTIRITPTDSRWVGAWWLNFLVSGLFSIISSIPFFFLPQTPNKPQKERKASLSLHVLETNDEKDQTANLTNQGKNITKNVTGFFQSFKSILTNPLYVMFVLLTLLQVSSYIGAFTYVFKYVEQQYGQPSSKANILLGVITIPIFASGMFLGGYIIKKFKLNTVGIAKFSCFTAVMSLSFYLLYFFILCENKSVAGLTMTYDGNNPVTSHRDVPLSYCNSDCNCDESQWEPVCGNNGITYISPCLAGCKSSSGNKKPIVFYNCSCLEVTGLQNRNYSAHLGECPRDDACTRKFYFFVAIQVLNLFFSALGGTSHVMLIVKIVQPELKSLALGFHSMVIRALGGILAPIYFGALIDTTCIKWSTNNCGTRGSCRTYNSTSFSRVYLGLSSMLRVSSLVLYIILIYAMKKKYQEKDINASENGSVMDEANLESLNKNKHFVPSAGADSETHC
# Method: The OATP1B1, OATP1B3, and mock cells were cultured in the DMEM medium containing 10% fetal bovine serum, penicillin–streptomycin solution (100 U/mL and 0.1 mg/ml), and 0.5 mg/ml geneticin at 37°C in the presence of 5% CO2. The cells were seeded in a 24-well plate at a density of 4×10^5 cells/well and grown for 80–90% confluence. […] After washing the cells three times with transporter buffer at 4°C, the cells were lysed with liquid nitrogen. The lysates were precipitated with methanol and centrifuged at 12,000 rpm at 4°C for 5 min. The supernatant was analyzed by LC-MS/MS. Protein concentration was determined using the Pierce® BCA Protein Assay Kit. All experiments were performed in triplicate.
# Phoenix WinNonlin® 7.1 (Pharsight Corporation, Mountain View, CA, United States) was used to calculate the pharmacokinetic parameters by the noncompartmental method. IC50 values were obtained by a computer-generated nonlinear least squares fit using GraphPad Prism 8.1 (GraphPad Software, San Diego, CA, United States). Statistical analysis was performed using SPSS ver. 22.0 (IBM, Chicago, IL, United States). The results are presented as mean ± S.D., unless otherwise stated. After testing for the homogeneity of variance, statistical analysis was performed with a one-way ANOVA followed by the LSD post hoc test or unpaired Student’s t-test. A probability (p) of less than 0.05, 0.01, and 0.001 was considered to be statistically significant, highly significant, and extremely significant, respectively.
# [3] = for I2, maximal theoretical gastrointestinal concentration: dose/250 ml; for Imax,u, unbound steady-state plasma peak concentration: fu×I1
# BCRP [4] = molecular target: T2, BCRP (Homo sapiens, UniProt Q9UNQ0); settings: CP at 75 and 300 mg
# T2 sequence (Q9UNQ0 1-655): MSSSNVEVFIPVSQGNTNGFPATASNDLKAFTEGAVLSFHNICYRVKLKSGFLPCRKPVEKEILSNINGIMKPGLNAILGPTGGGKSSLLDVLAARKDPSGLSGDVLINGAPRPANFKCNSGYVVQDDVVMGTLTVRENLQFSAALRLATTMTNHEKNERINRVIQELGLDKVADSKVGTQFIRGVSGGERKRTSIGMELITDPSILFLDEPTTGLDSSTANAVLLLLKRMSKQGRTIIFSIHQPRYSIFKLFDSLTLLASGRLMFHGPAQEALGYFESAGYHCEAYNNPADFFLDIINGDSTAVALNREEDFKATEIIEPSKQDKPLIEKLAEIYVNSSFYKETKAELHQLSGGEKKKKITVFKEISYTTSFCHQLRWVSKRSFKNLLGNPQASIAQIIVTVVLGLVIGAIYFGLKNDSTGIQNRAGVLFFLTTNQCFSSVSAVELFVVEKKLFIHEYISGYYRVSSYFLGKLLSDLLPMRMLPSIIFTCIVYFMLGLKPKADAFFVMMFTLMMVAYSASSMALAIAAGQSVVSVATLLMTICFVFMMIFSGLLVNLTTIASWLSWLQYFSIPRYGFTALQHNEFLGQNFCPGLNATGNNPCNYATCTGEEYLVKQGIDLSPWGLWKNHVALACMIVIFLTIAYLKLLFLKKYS
# OATP1B1 [5] = settings: cited from earlier work
# BCRP [6] = settings: read-out: IC50 BCRP; BCRP-mediated RSV transport, Caco-2 cells; ref Elsby et al. (2016); cited from earlier work
IC50 (OATP1B1 [2]),"Iin,max,u, steady-state unbound liver inlet concentration ([3]; 75 mg CP)","I2, maximal theoretical gastrointestinal concentration ([3]; 75 mg CP)","Imax,u, unbound steady-state plasma peak concentration ([3]; 75 mg CP)","Iin,max,u, steady-state unbound liver inlet concentration ([3]; 300 mg CP)","I2, maximal theoretical gastrointestinal concentration ([3]; 300 mg CP)","Imax,u, unbound steady-state plasma peak concentration ([3]; 300 mg CP)",[I2]/IC50 BCRP ratio (BCRP [4]),Compound,Individual contribution of OATP1B3 to hepatic uptake (OATP1B3),Increase of RSV AUC with concomitant CP ([1]; 20 mg RSV),Increase of RSV Cmax with concomitant CP ([1]; 20 mg RSV),Increase of RSV AUC with concomitant CP ([1]; 40 mg RSV),Increase of RSV Cmax with concomitant CP ([1]; 40 mg RSV),"IC50 (OATP1B1 [5]; substrate cerivastatin, ref Tamraz et al. (2013), read-out: IC50 OTAP1B1 (cerivastatin, CER, as substrate))","IC50 (OATP1B1 [5]; substrate estradiol 17β-glucuronide, ref Elsby et al. (2016), read-out: IC50 OTAP1B1 (estradiol 17β-glucuronide, e17βG, as substrate))",IC50 (BCRP [6])
,,,,,,,,"CC(C)c1nc(N(C)S(C)(=O)=O)nc(-c2ccc(F)cc2)c1/C=C/[C@@H](O)C[C@@H](O)CC(=O)O [RSV, rosuvastatin]",0.11,2.0 fold,2.2 fold,1.7 fold,1.3 fold,,,
27.4 µM,0.31 µM,932.19 µM,0.00002 µM,1.24 µM,"3,728.77 μM",0.00018 µM,> 10,"COC(=O)[C@H](c1ccccc1Cl)N1CCc2sccc2C1 [CP, clopidogrel]",,,,,,3950 nM,1800 nM,63 µM
